Here are results for five compounds from US10392667B2, “Methods and devices for predicting treatment efficacy of fulvestrant in cancer patients” (Medical Prognosis Institute A/S, priority 2013, dated 2019).

One assay deals with NCI60 cell lines. The following applies: mean over all NCI60 cell lines (FIG. 8); cited from earlier work.
The test system of assay [1] is ER-positive, locally advanced breast cancer. Kind of assay: NEWEST Phase II trial: tumor response by 3D ultrasound after 16 weeks of neoadjuvant fulvestrant. The assay is classed as in vivo, human. To be noted: for overall response rate (CR+PR): 16 weeks. On the procedure: NEWEST (Neoadjuvant Endocrine Therapy for Women with Estrogen-Sensitive Tumors; 9238IL/0065) was a randomized, open-label, multicenter, Phase II study involving postmenopausal women with newly diagnosed, ER-positive, locally advanced breast cancer who had received no prior breast cancer treatment ([…]). Eligible patients were randomized 1:1 to receive either fulvestrant 500 mg or 250 mg for 16 weeks preceding surgery. Fulvestrant 500 mg was given as two 5 ml intramuscular injections on days 0, 14, 28 and every 28 days thereafter for 16 weeks. Fulvestrant 250 mg was given as one 5 ml injection on days 0, 28 and every 28 days thereafter for 16 weeks (Kuter et al., Breast Cancer Res. Treat., 133:237-246, 2012).
A total of 211 patients were enrolled in NEWEST. Of these, 173 completed the study and 121 met all protocol criteria. Fresh frozen pre-treatment samples with sufficient RNA (100 ng) was available from 44 patients. Two samples were discarded due to array quality, leaving 42 patients. Of these 42 patients, 22 were in the 500 mg treatment group and 20 were in the 250 mg treatment group.
During the 16-week treatment phase, patients underwent clinical breast examination every 4 weeks. Tumor volume was measured by 3D ultrasound at baseline, week 4, and after 16 weeks of treatment before definitive surgery. Tumor response was defined as complete response (CR, disappearance of all lesions), partial response (PR, at least 65% reduction in tumor volume by 3D ultrasound), disease progression (PD, at least 73% increase in tumor volume), or stable disease (SD, neither partial response nor disease progression). The reduction for partial response was in relation to baseline but for progressive disease was in relation to the smallest tumor volume at any preceding assessment. Objective responders were those patients with a complete response or partial response.

A further assay concerns Ki67. The following applies: after 4 weeks of treatment, patients, cited from earlier work.
Another assay relates to early breast cancer. The experiment in a line: Trial 223: neoadjuvant anastrozole, response according to RECIST. To be noted: patients with outcome information. The assay is classed as in vivo, human. On the procedure: Trial 223 (Smith et al., J. Clin. Oncol., 25:3816-3822, 2007) was a placebo-controlled trial of neoadjuvant anastrozole alone or with gefitinib in early breast cancer. We used pre-treatment samples from patients from arm B and C: anastrozole 1 mg/d for the duration of the 16 week period plus placebo 1 tablet/d orally for 2 weeks. Patients in arm B were followed by gefitinib 250 mg/d orally for 14 weeks whereas patients in arm C continued with placebo for 14 weeks. We received pre-treatment biopsy material from 21 patients in arms B and C with Ki67 measurements after 2 weeks. We received pre-treatment biopsy material from 16 patients in arm C with outcome information according to guidelines set forth in Response Evaluation Criteria in Solid Tumors (RECIST).
The prediction score of the invention (e.g., prediction score for fulvestrant) was tested for the ability to predict response to aromatase inhibition in a small cohort of 21 patients treated with neoadjuvant anastrozole in a similar protocol to that used to test fulvestrant. […] In addition there was no correlation between prediction score and change in Ki67 produced after 2 weeks of anastrozole treatment (N=21, P=0.9).

[2] abbreviates: 250 mg fulvestrant, patients with array data.
Setting [3] is: 500 mg fulvestrant for 16 weeks, patients with array data.

SMILES strings stand for the structures. Read-outs that look alike come from different tables or passages of the source.

As usually defined, the GI50 is the concentration that inhibits growth by half. `C[C@]12CC[C@@H]3c4ccc(O)cc4C[C@@H](CCCCCCCCC[S+]([O-])CCCC(F)(F)C(F)(F)F)[C@H]3[C@@H]1CC[C@@H]2O` (stereo partly drawn) [Fulvestrant, fulvestrant]: in the assay on NCI60 cell lines, the concentration for 50% growth inhibition (GI50) is 63 µM. The “overall response rate (CR+PR)” value in assay [1] (250 mg fulvestrant, 19 patients with array data) was found to be 26%. In assay [1] (setting [2]), the “number of partial responders” value is 5, the “number of patients with stable disease” value stood at 13 and the “number of progressive disease patients” value is reported as 1. Moreover, in assay [1] (setting [3]), the “number of non-responders (SD+PD)” value was determined as 9 and the “number of responders (PR)” value is on record as 11. Further, the “overall response rate (CR+PR)” value in assay [1] (500 mg fulvestrant) came to 50%. In the assay with Ki67 (250 mg dose), the “average reduction in Ki67” value is on record as 47%. In the assay with Ki67 (500 mg dose), the “average reduction in Ki67” value is 79%.
Turning to `CC(C)(C#N)c1cc(Cn2cncn2)cc(C(C)(C)C#N)c1` [anastrozole], in the assay with early breast cancer, the number of nonresponders result is recorded as “Seven” and the number of responders entry is “Nine”.
On to `O=C(c1ccc(OCCN2CCCCC2)cc1)c1c(-c2ccc(O)cc2)sc2cc(O)ccc12` [raloxifene], for which the 50% growth inhibitory concentration (GI50) in the assay on NCI60 cell lines was 8.4 µM.
Regarding `CC/C(=C(\c1ccccc1)c1ccc(OCCN(C)C)cc1)c1ccccc1` [tamoxifen], in the assay on NCI60 cell lines, the GI50 was 4.3 µM.
As for `CN(C)CCOc1ccc(/C(=C(/CCCl)c2ccccc2)c2ccccc2)cc1` [toremifene], the GI50 with NCI60 cell lines was 13 µM.
